The results in this text go back to BindingDB's records for doi:10.7270/Q25H7DV5 (Burnham Center For Chemical Genomics, 2011).

Where only a bound is given, the exact number is not on record here.

The assay addresses DNA dC->dU-editing enzyme APOBEC-3G (Homo sapiens, UniProt Q9HC16). The assay can be described thus: APOBEC3G deaminase inhibitors, SAR follow-up, biochemical, fluorescence, single-stranded DNA substrate (AID 602136). Particulars: 25 °C.

DNA dC->dU-editing enzyme APOBEC-3G, sequence (Q9HC16 whole entry): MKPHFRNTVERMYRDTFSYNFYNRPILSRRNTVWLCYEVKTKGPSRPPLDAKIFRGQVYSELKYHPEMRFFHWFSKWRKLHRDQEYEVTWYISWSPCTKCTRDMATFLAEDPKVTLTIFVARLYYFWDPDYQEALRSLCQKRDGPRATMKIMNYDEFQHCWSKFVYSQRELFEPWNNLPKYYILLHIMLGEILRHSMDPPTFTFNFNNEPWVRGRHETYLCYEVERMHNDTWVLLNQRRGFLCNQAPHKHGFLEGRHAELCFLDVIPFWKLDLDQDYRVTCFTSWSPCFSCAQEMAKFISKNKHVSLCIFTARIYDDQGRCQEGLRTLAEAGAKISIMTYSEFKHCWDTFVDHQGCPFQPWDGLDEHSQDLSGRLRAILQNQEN

As to `CC1(C)Oc2ccc3ccc(=O)oc3c2C(CN=O)=C1Cl` [9-chloro-2-keto-8,8-dimethyl-pyrano[2,3-f]chromene-10-carbaldehyde oxime], the IC50 was above 99 µM.
Then `CCN1C(SCC(=O)NCc2ccco2)=NNC1=C1C=CC=CC1=O`, with above 99 µM.

A word on the IC50: it is the point on the concentration scale where inhibition reaches its midpoint. A high value points to weaker potency.
